Assay results taken from ChEMBL document CHEMBL1201862, “PubChem BioAssay data set” (2004).
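Exposure lasted 48 hours, with cells grown in 96-well plates and compounds tested at five concentrations. GI50 = concentration required for 50% inhibition of growth.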 Active and inactive are the calls of the source. Rule as the data show it: active = GI50 up to about 1.1 µM and inactive = higher.

Legend:
Experiment in all cases: NCI anticancer screen, dose series, 48 h
SK-MEL-2 = system: SK-MEL-2
OVCAR-8 = system: OVCAR-8
SNB-19 = system: SNB-19
U-251 = system: U-251
OVCAR-5 = system: OVCAR-5
SK-MEL-28 = system: SK-MEL-28
NCI-H226 = system: NCI-H226
UACC-257 = system: UACC-257
RPMI-8226 = system: RPMI-8226
SK-MEL-5 = system: SK-MEL-5
NCI-H460 = system: NCI-H460
HOP-62 = system: HOP-62
HCT-116 = system: HCT-116
IGROV-1 = system: IGROV-1
SW-620 = system: SW-620
SK-OV-3 = system: SK-OV-3
SF-268 = system: SF-268
Malme-3M = system: Malme-3M
KM12 = system: KM12
UACC-62 = system: UACC-62

Structure (SMILES) | GI50 (SK-MEL-2) | GI50 (OVCAR-8) | GI50 (SNB-19) | GI50 (U-251) | GI50 (OVCAR-5) | GI50 (SK-MEL-28) | GI50 (NCI-H226) | GI50 (UACC-257) | GI50 (RPMI-8226) | GI50 (SK-MEL-5) | GI50 (NCI-H460) | GI50 (HOP-62) | GI50 (HCT-116) | GI50 (IGROV-1) | GI50 (SW-620) | GI50 (SK-OV-3) | GI50 (SF-268) | GI50 (Malme-3M) | GI50 (KM12) | GI50 (UACC-62)
CCP(=O)(CC)C(Cl)Cl | > 100 µM (inactive) | > 100 µM (inactive) | > 100 µM (inactive) | > 100 µM (inactive) | > 100 µM (inactive) | > 100 µM (inactive) | > 100 µM (inactive) | > 100 µM (inactive) | > 100 µM (inactive) | > 100 µM (inactive) | > 100 µM (inactive) | > 100 µM (inactive) | > 100 µM (inactive) | > 100 µM (inactive) | > 100 µM (inactive) | > 100 µM (inactive) | – | – | – | –
COc1ccc2cc1Oc1ccc(cc1)C[C@H]1c3cc(c(OC)cc3CCN1C)Oc1c(O)c(OC)cc3c1[C@H](C2)N(C)CC3 [FANGCHINOLINE] | 26.5 µM (inactive) | 5.25 µM (inactive) | 43.8 µM (inactive) | 27.2 µM (inactive) | 46.3 µM (inactive) | 21.8 µM (inactive) | 39.9 µM (inactive) | 9.48 µM (inactive) | 8.91 µM (inactive) | 13.6 µM (inactive) | 21.8 µM (inactive) | 37.6 µM (inactive) | 13.3 µM (inactive) | 27.1 µM (inactive) | 15 µM (inactive) | 28.4 µM (inactive) | 30.2 µM (inactive) | 30.7 µM (inactive) | 16.8 µM (inactive) | 20.7 µM (inactive)
COc1cc(CCCl)c(CC2=NCCc3cc(OC)c(OC)cc32)cc1OC | > 100 µM (inactive) | > 100 µM (inactive) | > 100 µM (inactive) | > 100 µM (inactive) | > 100 µM (inactive) | > 100 µM (inactive) | > 100 µM (inactive) | > 100 µM (inactive) | 39.4 µM (inactive) | 67.8 µM (inactive) | > 100 µM (inactive) | 20.8 µM (inactive) | 24.4 µM (inactive) | 29.4 µM (inactive) | 85.5 µM (inactive) | > 100 µM (inactive) | 97.3 µM (inactive) | – | 71.1 µM (inactive) | 43.3 µM (inactive)
NC(=O)C1(c2ccccc2)Nc2ccccc2S1 (configuration not stated) | > 100 µM (inactive) | > 100 µM (inactive) | > 100 µM (inactive) | > 100 µM (inactive) | > 100 µM (inactive) | > 100 µM (inactive) | > 100 µM (inactive) | – | > 100 µM (inactive) | > 100 µM (inactive) | > 100 µM (inactive) | > 100 µM (inactive) | > 100 µM (inactive) | – | > 100 µM (inactive) | > 100 µM (inactive) | > 100 µM (inactive) | > 100 µM (inactive) | > 100 µM (inactive) | > 100 µM (inactive)
COP(=O)(OC)C(Cc1cn(C(C)=O)c2ccccc12)C(=O)O (configuration not stated) | > 100 µM (inactive) | > 100 µM (inactive) | > 100 µM (inactive) | > 100 µM (inactive) | > 100 µM (inactive) | > 100 µM (inactive) | > 100 µM (inactive) | > 100 µM (inactive) | > 100 µM (inactive) | > 100 µM (inactive) | > 100 µM (inactive) | > 100 µM (inactive) | > 100 µM (inactive) | > 100 µM (inactive) | > 100 µM (inactive) | > 100 µM (inactive) | – | – | – | –
COC1C=CC(O)C(CO)O1 (configuration not stated) | > 100 µM (inactive) | > 100 µM (inactive) | – | > 100 µM (inactive) | > 100 µM (inactive) | > 100 µM (inactive) | – | > 100 µM (inactive) | – | > 100 µM (inactive) | > 100 µM (inactive) | > 100 µM (inactive) | > 100 µM (inactive) | > 100 µM (inactive) | > 100 µM (inactive) | > 100 µM (inactive) | – | > 100 µM (inactive) | > 100 µM (inactive) | > 100 µM (inactive)
N/C(=N\O)N/N=C\c1cc([N+](=O)[O-])cc([N+](=O)[O-])c1O | > 100 µM (inactive) | 6.11 µM (inactive) | > 96.2 µM (inactive) | 10.5 µM (inactive) | > 30.5 µM (inactive) | > 100 µM (inactive) | 29.4 µM (inactive) | 98.2 µM (inactive) | 16.5 µM (inactive) | 9.42 µM (inactive) | 2.76 µM (inactive) | 4.22 µM (inactive) | 4.92 µM (inactive) | – | 13.9 µM (inactive) | 25.5 µM (inactive) | 62.1 µM (inactive) | > 100 µM (inactive) | 2.94 µM (inactive) | 1.58 µM (inactive)
Nc1nn(CC(O)CO)c(=O)s1 (configuration not stated) | > 100 µM (inactive) | > 100 µM (inactive) | > 100 µM (inactive) | > 100 µM (inactive) | > 100 µM (inactive) | 7.69 µM (inactive) | > 100 µM (inactive) | > 100 µM (inactive) | > 100 µM (inactive) | > 100 µM (inactive) | > 100 µM (inactive) | > 100 µM (inactive) | > 100 µM (inactive) | > 100 µM (inactive) | > 100 µM (inactive) | > 100 µM (inactive) | > 100 µM (inactive) | > 100 µM (inactive) | – | > 100 µM (inactive)
CCSc1nc(N)c2c(-c3ccc(OC)c(OC)c3)c3c(nc2n1)CCCC3 | – | > 100 µM (inactive) | > 100 µM (inactive) | > 100 µM (inactive) | > 100 µM (inactive) | > 100 µM (inactive) | – | > 100 µM (inactive) | > 100 µM (inactive) | > 100 µM (inactive) | > 100 µM (inactive) | > 100 µM (inactive) | > 100 µM (inactive) | > 100 µM (inactive) | > 100 µM (inactive) | > 100 µM (inactive) | > 100 µM (inactive) | > 100 µM (inactive) | > 100 µM (inactive) | > 100 µM (inactive)
COC(=O)C1=C(O)C(C(=O)OC)[C@]2(O)[C@@H](C(=O)OC)[C@H]1C[C@@H](c1ccccc1)[C@@H]2C(=O)OC (some centres not stated) | 13.9 µM (inactive) | – | 24.3 µM (inactive) | 16.1 µM (inactive) | 16 µM (inactive) | 20.9 µM (inactive) | 18.6 µM (inactive) | 10.3 µM (inactive) | 9.73 µM (inactive) | – | 14 µM (inactive) | 20 µM (inactive) | 6.98 µM (inactive) | – | – | 17.4 µM (inactive) | 1.96 µM (inactive) | 18.2 µM (inactive) | 11.7 µM (inactive) | 11.9 µM (inactive)
O=Cc1cn(CCCCCCCCn2cc(C=O)c3ccccc32)c2ccccc12 | > 10 µM (inactive) | > 10 µM (inactive) | > 10 µM (inactive) | > 10 µM (inactive) | 8.79 µM (inactive) | > 10 µM (inactive) | 8.24 µM (inactive) | – | 3.96 µM (inactive) | 4.17 µM (inactive) | 0.561 µM (active) | > 10 µM (inactive) | 7.4 µM (inactive) | > 10 µM (inactive) | > 10 µM (inactive) | > 10 µM (inactive) | > 10 µM (inactive) | > 10 µM (inactive) | > 10 µM (inactive) | > 10 µM (inactive)
CCOC(=O)c1ccc(N[C@@H]2c3cc4c(cc3C(c3cc(OC)c(O)c(OC)c3)[C@H]3C(=O)OCC32)OCO4)cc1 (some centres not stated) | 2.63 µM (inactive) | 0.708 µM (active) | 0.36 µM (active) | 0.249 µM (active) | 1.56 µM (inactive) | 2.55 µM (inactive) | 0.284 µM (active) | 3.57 µM (inactive) | 0.145 µM (active) | 0.505 µM (active) | 0.0255 µM (active) | – | 1.17 µM (inactive) | 3.27 µM (inactive) | 0.475 µM (active) | 0.955 µM (active) | 0.771 µM (active) | 0.568 µM (active) | 1.5 µM (inactive) | 0.521 µM (active)
CCCCOP1(=O)C=CC(Cl)=C(C)C1 (configuration not stated) | 12.4 µM (inactive) | 21.6 µM (inactive) | 51.9 µM (inactive) | > 10 µM (inactive) | – | 16.3 µM (inactive) | 21.4 µM (inactive) | > 10 µM (inactive) | 22.3 µM (inactive) | – | 29.8 µM (inactive) | 71.3 µM (inactive) | 21.2 µM (inactive) | – | 20.4 µM (inactive) | – | 28.1 µM (inactive) | 19.5 µM (inactive) | 21.5 µM (inactive) | 22.3 µM (inactive)
COc1ccc(C2C(C(=O)O)=C(COC(C)=O)Oc3cc4c(cc32)OCO4)cc1 (configuration not stated) | – | > 100 µM (inactive) | > 100 µM (inactive) | > 100 µM (inactive) | – | > 100 µM (inactive) | – | > 100 µM (inactive) | > 100 µM (inactive) | > 100 µM (inactive) | > 100 µM (inactive) | > 100 µM (inactive) | > 100 µM (inactive) | > 100 µM (inactive) | > 100 µM (inactive) | > 100 µM (inactive) | – | > 100 µM (inactive) | – | > 100 µM (inactive)
CN(CCCCCl)P(=O)(OCC1=CC(=O)c2ccccc2C1=O)OC[C@H]1O[C@@H](n2cc(F)c(=O)[nH]c2=O)C[C@@H]1O (some centres not stated) | 8.09 µM (inactive) | 0.0378 µM (active) | – | – | 4.38 µM (inactive) | 4.11 µM (inactive) | 0.521 µM (active) | 6.17 µM (inactive) | – | 0.0334 µM (active) | < 0.01 µM (active) | 0.0415 µM (active) | 0.0693 µM (active) | 0.124 µM (active) | 3.51 µM (inactive) | – | < 0.01 µM (active) | 1.1 µM (active) | 3.64 µM (inactive) | 0.0399 µM (active)
